pIC50: −log10 of the molar value. Where a name gives a salt, the structure may show the parent alone.
What was measured:
AKT1 = biological target: T1, AKT1 (Homo sapiens, UniProt P31749); assay: AKT Kinase Assay (IMAP fluorescent polarisation) vs AKT1; format: biochemical; settings: activated AKT1, FAM Crosstide substrate
T1 construct: purchased SignalChem
Method in brief: (§1)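 Each activated AKT isoform, at a pre-determined linear-range concentration, was pre-incubated 45 min at room temperature with compound in a fourteen-point half-log series. ATP plus 5′FAM-Crosstide then reacted 1 h; IMAP binding reagent stopped it (1 h). Fluorescence polarisation (ex 485/em 528 nm) versus vehicle gave IC50 by non-linear regression.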

AKT3 = biological target: T2, AKT3 (Homo sapiens, UniProt Q9Y243); assay: AKT Kinase Assay (IMAP fluorescent polarisation) vs AKT3; format: biochemical; settings: activated AKT3, FAM Crosstide substrate
T2 construct: purchased SignalChem
Method in brief: as §1

[1] = system: PC3 and/or LnCaP cell lines; assay: In vitro cell proliferation assay (Cell Titre Glo); format: cell-based; settings: Homo sapiens, 72 hours, read-out: inhibition of proliferation IC50
Description: Testing of the compounds was also performed using in vitro cell proliferation assays:
Cell Titre Glo (Promega) is a highly sensitive homogeneous reagent used to determine the viability of cells. The reagent uses a stable form of luciferase to measure ATP as an output of viability. The luminescent values generated in the assay are directly proportional to the number of viable cells in your assay.
The following materials were used: White, clear bottomed 96 well assay plates (Costar); Cell titre Glo reagents; LnCaP (ECACC) cells grown in RPMI medium (Invitrogen) supplemented with 10 mM HEPES (Invitrogen), 1 mM Sodium pyruvate (Invitrogen), 2 mM L-Glutamine (Invitrogen) and 10% Foetal calf serum (Invitrogen); PC3 (ECACC) cells grown in RPMI medium supplemented with 10% Foetal calf serum (Invitrogen); Trypsin (Invitrogen); PBS (Invitrogen); Biotek Synergy 4 Hybrid Plate reader; 96 well plate shaker (Stuart SSL5); Eppendorf 5414 desk-top centrifuge; Beckman Coulter cell counter Z1 single threshold system.
Prostate cell lines, PC3 and LnCaP, were washed, detached and re-suspended in their respective fresh media. The cells were pelleted by centrifugation (Eppendorf 5414) and spent supernatant discarded. The cells were re-suspended by vortex mixing, counted and seeded into clear bottom white 96 well plates at a density of 5000 cells per well. The cells were incubated (Sanyo) overnight at 37° C. ([…]/5% CO2), and next day treated with increasing concentrations of test compound formulated in fresh medium. The plates were returned to the incubator for 72 hours.
Cell Titre Glo (Promega) was prepared by mixing the supplied reagents as per manufacturer's instructions and left to stand at room temperature. The cell plates were removed from the incubator and 80 μl of the Cell Titre Glo solution added to each well. The plate was shaken for five minutes to ensure homogenous mixing of reagents and cells, then left to stand for ten minutes at room temperature.
The cell viability post compound treatment was determined by the luminescent intensity emitted from the drug treated wells in the plate. In brief, the assay plate was placed in the Biotex Synergy 4 Hybrid plate reader and the luminescence read in each well. The compound treated wells were compared to vehicle treated wells and the % inhibition of cell viability calculated.
The data was analysed using GraphPad Prism, with IC50 values generated using non-linear regression of the data set.

AKT2 = biological target: T3, AKT2 (Homo sapiens, UniProt P31751); assay: AKT Kinase Assay (IMAP fluorescent polarisation) vs AKT2; format: biochemical; settings: activated AKT2, FAM Crosstide substrate
T3 construct: purchased SignalChem
Method in brief: as §1

T3 sequence (P31751 whole entry): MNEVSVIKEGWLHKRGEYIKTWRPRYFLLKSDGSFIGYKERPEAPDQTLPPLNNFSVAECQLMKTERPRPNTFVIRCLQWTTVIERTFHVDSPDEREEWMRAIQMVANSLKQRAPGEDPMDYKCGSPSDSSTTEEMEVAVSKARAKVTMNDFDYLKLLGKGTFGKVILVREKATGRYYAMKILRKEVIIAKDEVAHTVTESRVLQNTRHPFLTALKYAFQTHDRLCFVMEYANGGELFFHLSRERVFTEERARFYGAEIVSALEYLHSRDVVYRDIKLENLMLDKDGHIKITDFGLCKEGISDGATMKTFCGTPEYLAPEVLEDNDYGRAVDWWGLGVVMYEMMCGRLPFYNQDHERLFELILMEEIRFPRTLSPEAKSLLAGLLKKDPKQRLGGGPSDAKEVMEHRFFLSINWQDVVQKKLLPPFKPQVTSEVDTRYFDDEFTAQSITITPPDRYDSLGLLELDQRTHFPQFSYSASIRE
T1 sequence (P31749 whole entry): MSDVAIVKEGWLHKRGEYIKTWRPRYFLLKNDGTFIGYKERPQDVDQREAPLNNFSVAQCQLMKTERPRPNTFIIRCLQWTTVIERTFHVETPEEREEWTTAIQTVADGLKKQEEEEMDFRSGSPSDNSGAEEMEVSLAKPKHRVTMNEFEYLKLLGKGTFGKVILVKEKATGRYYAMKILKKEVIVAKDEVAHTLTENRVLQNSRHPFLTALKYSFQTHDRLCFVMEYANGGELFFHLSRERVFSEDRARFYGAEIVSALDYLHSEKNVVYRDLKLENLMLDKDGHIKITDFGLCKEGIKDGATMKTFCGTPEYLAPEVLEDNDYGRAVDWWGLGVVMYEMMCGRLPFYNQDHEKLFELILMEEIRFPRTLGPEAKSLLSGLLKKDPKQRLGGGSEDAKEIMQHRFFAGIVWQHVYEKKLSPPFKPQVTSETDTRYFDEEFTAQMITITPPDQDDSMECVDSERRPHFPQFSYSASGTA
T2 sequence (Q9Y243 whole entry): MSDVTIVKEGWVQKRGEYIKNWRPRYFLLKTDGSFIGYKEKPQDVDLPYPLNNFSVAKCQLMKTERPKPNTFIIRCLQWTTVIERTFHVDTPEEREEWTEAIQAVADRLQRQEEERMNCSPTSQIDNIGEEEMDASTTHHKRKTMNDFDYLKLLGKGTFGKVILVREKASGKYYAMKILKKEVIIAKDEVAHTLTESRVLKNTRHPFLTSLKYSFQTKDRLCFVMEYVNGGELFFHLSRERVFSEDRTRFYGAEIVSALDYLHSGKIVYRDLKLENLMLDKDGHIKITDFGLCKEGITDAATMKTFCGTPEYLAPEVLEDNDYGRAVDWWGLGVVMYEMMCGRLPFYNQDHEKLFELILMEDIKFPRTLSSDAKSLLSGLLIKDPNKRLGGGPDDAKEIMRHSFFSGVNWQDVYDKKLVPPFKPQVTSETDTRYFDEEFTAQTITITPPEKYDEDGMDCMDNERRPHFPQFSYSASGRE

Row | pIC50 (AKT1) | pIC50 (AKT3) | pIC50 [1] | pIC50 (AKT2) | SMILES
1 | 5.00 to 6.00 | < 5.00 |  | 5.00 to 6.00 | C#Cc1cnc2oc(-c3ccc(C4(N)CCC4)cc3)c(-c3ccccc3)c2n1 [Example 146, 1-(4-(2-Ethynyl-7-phenylfuro[2,3-b]pyrazin-6-yl)phenyl)cyclobutanamine]
2 | 5.00 to 6.00 | < 5.00 |  | 5.00 to 6.00 | NC1(c2ccc(-c3oc4ncc(-c5cnn[nH]5)nc4c3-c3ccccc3)cc2)CCC1 [Example 147, 1-(4-(7-Phenyl-2-(1H-1,2,3-triazol-5-yl)furo[2,3-b]pyrazin-6-yl)phenyl)cyclobutanamine]
3 | 6.00 to 7.00 | < 5.00 |  | 5.00 to 6.00 | NC1(c2ccc(-c3oc4ncc(NCCO)nc4c3-c3ccccc3)cc2)CCC1 [Example 148, 2-(6-(4-(1-Aminocyclobutyl)phenyl)-7-phenylfuro[2,3-b]pyrazin-2-ylamino)ethanol]
4 | 6.00 to 7.00 | < 5.00 |  | 5.00 to 6.00 | Cc1cnc2oc(-c3ccc(C4(N)CCC4)cc3)c(-c3ccccc3)c2n1 [Example 149, 1-(4-(2-Methyl-7-phenylfuro[2,3-b]pyrazin-6-yl)phenyl)cyclobutanamine]
5 | 5.00 to 6.00 | < 5.00 |  | 6.00 to 7.00 | NC1(c2ccc(-c3oc4ncc(-c5cccnc5)nc4c3-c3ccccc3)cc2)CCC1 [Example 150, 1-(4-(7-Phenyl-2-(pyridin-3-yl)furo[2,3-b]pyrazin-6-yl)phenyl)cyclobutanamine, 2HCl]
6 | 5.00 to 6.00 | < 5.00 |  | 5.00 to 6.00 | CC(=O)Nc1cccc(-c2cnc3oc(-c4ccc(C5(N)CCC5)cc4)c(-c4ccccc4)c3n2)c1 [Example 151, N-(3-(6-(4-(1-Aminocyclobutyl)phenyl)-7-phenylfuro[2,3-b]pyrazin-2-yl)phenyl)acetamide, HCl]
7 | 6.00 to 7.00 | < 5.00 |  | 5.00 to 6.00 | NC(=O)c1cccc(-c2cnc3oc(-c4ccc(C5(N)CCC5)cc4)c(-c4ccccc4)c3n2)c1 [Example 152, 3-(6-(4-(1-Aminocyclobutyl)phenyl)-7-phenylfuro[2,3-b]pyrazin-2-yl)benzamide, HCl]
8 | 6.00 to 7.00 | < 5.00 |  | 6.00 to 7.00 | CSc1cnc2c(-c3ccccc3)c(-c3ccc(C4(N)CCC4)cc3)[nH]c2n1 [Example 153, 1-(4-(3-(Methylthio)-7-phenyl-5H-pyrrolo[3,2-b]pyrazin-6-yl)phenyl)cyclobutanamine]

Continued, molecule first:

Row | SMILES | pIC50 (AKT1) | pIC50 (AKT3) | pIC50 [1] | pIC50 (AKT2)
9 | NC1(c2ccc(-c3oc4ccncc4c3-c3ccccc3)cc2)CCC1 [Example 1, 1-(4-(3-phenylfuro[3,2-c]pyridin-2-yl)phenyl)cyclobutanamine] | 5.00 to 6.00 | 5.00 to 6.00 | > 5.00 | 5.00 to 6.00
10 | NC1(c2ccc(-c3oc4nccnc4c3-c3ccccc3)cc2)CCC1 [Example 10, 1-(4-(7-Phenylfuro[2,3-b]pyrazin-6-yl)phenyl)cyclobutanamine.HCl] | 5.00 to 6.00 | < 5.00 | > 5.00 | 5.00 to 6.00
11 | NC1(c2ccc(-c3oc4nc[nH]c(=O)c4c3-c3ccccc3)cc2)CCC1 [Example 12, 6-(4-(1-Aminocyclobutyl)phenyl)-5-phenylfuro[2,3-d]pyrimidin-4(3H)-one] | 5.00 to 6.00 | 5.00 to 6.00 | > 5.00 | 5.00 to 6.00
12 | CSc1ncc2c(-c3ccccc3)c(-c3ccc(C4(N)CCC4)cc3)oc2n1 [Example 24, 1-(4-(2-(Methylthio)-5-phenylfuro[2,3-d]pyrimidin-6-yl)phenyl)cyclobutanamine] | 5.00 to 6.00 | < 5.00 | > 5.00 | 6.00 to 7.00
13 | CNc1nc(OC)c2c(-c3ccccc3)c(-c3ccc(C4(N)CCC4)cc3)oc2n1 [Example 32, 6-(4-(1-Aminocyclobutyl)phenyl)-4-methoxy-N-methyl-5-phenylfuro[2,3-d]pyrimidin-2-amine] | ≥ 7.00 | < 5.00 | > 5.00 | 6.00 to 7.00
14 | COc1nc(OCCO)nc2oc(-c3ccc(C4(N)CCC4)cc3)c(-c3ccccc3)c12 [Example 36, 2-((6-(4-(1-Aminocyclobutyl)phenyl)-4-methoxy-5-phenylfuro[2,3-d]pyrimidin-2-yl)oxy)ethanol] | ≥ 7.00 | < 5.00 | > 5.00 | 6.00 to 7.00
15 | COc1nc(N2CCNCC2)nc2oc(-c3ccc(C4(N)CCC4)cc3)c(-c3ccccc3)c12 [Example 37, 1-(4-(4-Methoxy-5-phenyl-2-(piperazin-1-yl)furo[2,3-d]pyrimidin-6-yl)phenyl)cyclobutanamine] | 6.00 to 7.00 | 5.00 to 6.00 | > 5.00 | 6.00 to 7.00
16 | Cn1cc(-c2cnc3oc(-c4ccc(C5(N)CCC5)cc4)c(-c4ccccc4)c3n2)cn1 [Example 136, 1-(4-(2-(1-Methyl-1H-pyrazol-4-yl)-7-phenylfuro[2,3-b]pyrazin-6-yl)phenyl)cyclobutanamine] | 5.00 to 6.00 | < 5.00 |  | 5.00 to 6.00
17 | Cn1nccc1-c1cnc2oc(-c3ccc(C4(N)CCC4)cc3)c(-c3ccccc3)c2n1 [Example 137, 1-(4-(2-(1-methyl-1H-pyrazol-5-yl)-7-phenylfuro[2,3-b]pyrazin-6-yl)phenyl)cyclobutanamine] | 6.00 to 7.00 | < 5.00 |  | 5.00 to 6.00
18 | NC1(c2ccc(-c3oc4ncc(C5CC5)nc4c3-c3ccccc3)cc2)CCC1 [Example 138, 1-(4-(2-Cyclopropyl-7-phenylfuro[2,3-b]pyrazin-6-yl)phenyl)cyclobutanamine] | 6.00 to 7.00 | 5.00 to 6.00 |  | 6.00 to 7.00
19 | NC1(c2ccc(-c3oc4ncc(-c5ccccc5)nc4c3-c3ccccc3)cc2)CCC1 [Example 139, 1-(4-(2,7-Diphenylfuro[2,3-b]pyrazin-6-yl)phenyl)cyclobutanamine, HCl] | 5.00 to 6.00 | 5.00 to 6.00 |  | 5.00 to 6.00
20 | NC1(c2ccc(-c3oc4ncc(-c5cncnc5)nc4c3-c3ccccc3)cc2)CCC1 [Example 140, 1-(4-(7-Phenyl-2-(pyrimidin-5-yl)furo[2,3-b]pyrazin-6-yl)phenyl)cyclobutanamine] | 5.00 to 6.00 | < 5.00 |  | 6.00 to 7.00
21 | NC1(c2ccc(-c3oc4ncc(-c5ccccn5)nc4c3-c3ccccc3)cc2)CCC1 [Example 141, 1-(4-(7-Phenyl-2-(pyridin-2-yl)furo[2,3-b]pyrazin-6-yl)phenyl)cyclobutanamine] | 5.00 to 6.00 | < 5.00 |  | 5.00 to 6.00
22 | NC1(c2ccc(-c3oc4ncc(COCc5ccccc5)nc4c3-c3ccccc3)cc2)CCC1 [Example 142, 1-(4-(2-(Benzyloxymethyl)-7-phenylfuro[2,3-b]pyrazin-6-yl)phenyl)cyclobutanamine] | 6.00 to 7.00 | 5.00 to 6.00 |  | 6.00 to 7.00
23 | Cc1n[nH]c(C)c1-c1cnc2oc(-c3ccc(C4(N)CCC4)cc3)c(-c3ccccc3)c2n1 [Example 143, 1-(4-(2-(3,5-Dimethyl-1H-pyrazol-4-yl)-7-phenylfuro[2,3-b]pyrazin-6-yl)phenyl)cyclobutanamine] | 5.00 to 6.00 | < 5.00 |  | 5.00 to 6.00
24 | NC1(c2ccc(-c3oc4ncc(-c5ccn[nH]5)nc4c3-c3ccccc3)cc2)CCC1 [Example 144, 1-(4-(7-Phenyl-2-(1H-pyrazol-5-yl)furo[2,3-b]pyrazin-6-yl)phenyl)cyclobutanamine] | 5.00 to 6.00 | < 5.00 |  | 5.00 to 6.00
25 | NC1(c2ccc(-c3oc4ncc(CO)nc4c3-c3ccccc3)cc2)CCC1 [Example 145, (6-(4-(1-Aminocyclobutyl)phenyl)-7-phenylfuro[2,3-b]pyrazin-2-yl)methanol] | 5.00 to 6.00 | < 5.00 |  | 5.00 to 6.00
